# In patent US20240123078A1, “COMPOUNDS AND METHODS FOR MODULATING IMMUNE-RELATED PROTEINS” (Vividion Therapeutics, Inc., priority 2019, published 2024):
# Assays:
# [1] = biological target: T1, ACAT1 Acetyl-CoA acetyltransferase, mitochondrial C119 (P24752) (Homo sapiens, UniProt P24752); test: Cysteine reactivity ABPP; type: binding
# T1 construct: endogenous in cells; host or cells: primary human T cells
# T1 sequence (P24752 34-427): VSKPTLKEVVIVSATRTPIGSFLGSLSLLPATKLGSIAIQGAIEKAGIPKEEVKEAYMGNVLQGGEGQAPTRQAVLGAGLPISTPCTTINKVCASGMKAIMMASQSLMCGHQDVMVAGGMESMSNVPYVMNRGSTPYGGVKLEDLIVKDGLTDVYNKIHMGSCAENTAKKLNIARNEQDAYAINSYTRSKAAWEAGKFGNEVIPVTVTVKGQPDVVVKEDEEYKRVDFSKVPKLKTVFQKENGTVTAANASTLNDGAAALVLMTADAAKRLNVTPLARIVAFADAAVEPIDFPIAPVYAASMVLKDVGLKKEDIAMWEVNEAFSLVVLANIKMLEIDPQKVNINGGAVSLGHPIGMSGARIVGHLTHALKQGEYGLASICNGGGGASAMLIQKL
# Procedure: (§1) Activated or expanded primary human T cells were re-suspended in RPMI (1×10^6 cells/mL) containing 10% fetal bovine serum (FBS), penicillin (100 U/mL), streptomycin ([…]), and L-glutamine (2 mM). The cells were treated with DMSO or compounds for 3 h, pelleted (524 g, 5 min), washed with PBS, and lysed by sonication (2×8 pulses). Soluble and particulate proteomic fractions were separated by ultracentrifugation (100,000 g, 45 min), and protein concentration was normalized to 1.7 mg/mL using a standard DC protein assay (Bio-Rad). The resulting proteomes were analyzed by competitive isotopic Tandem Orthogonal Proteolysis Activity-Based Protein Profiling (isoTOP-ABPP).
# (§2) The heavy/light isoTOP-ABPP ratios (R values) for each unique peptide (DMSO/compound treated) were quantified with in-house CIMAGE software (Weerapana et al., 2010) using default parameters (3 MS1 acquisitions per peak and signal to noise threshold set to 2.5). Site-specific engagement of cysteine residues was assessed by blockade of IA-alkyne probe labeling. […] Ratios for unique peptide sequences were calculated for each experiment; overlapping peptides with the same modified cysteine (e.g., different charge states, elution times or tryptic termini) were grouped together and the median ratio was reported as the final ratio (R). Additionally, ratios for peptide sequences containing multiple cysteines were grouped together. When aggregating data across experimental replicates, the mean of each experimental median R was reported. The peptide ratios reported by CIMAGE were further filtered to ensure the removal or correction of low-quality ratios in each individual dataset. The quality filters applied were the following: removal of half-tryptic peptides, removal of peptides with more than one tryptic miscleaved, removal of peptides with R=20 and only a single MS2 event triggered during the elution of the parent ion, removal of non-unique peptides. Further filtering was then performed as described below for each experiment type.
# (§3) Samples (500 μL, 1.7 mg/mL) were treated with iodoacetamide desthiobiotin (IA-DTB, 5 μL of 10 mM stock in DMSO, final concentration: 100 μM) for 1 h at ambient temperature. Ice-cold MeOH (500 μL) and CHCl3 (200 μL) were then added, the mixture was vortexed and centrifuged (10,000 g, 10 min, 4° C.) to afford a protein disc at the interface of CHCl3 and aqueous layers. Both layers were aspirated without perturbing the disk, which was re-suspended in cold methanol (500 μL) and CHCl3 (200 μL) by sonication. The proteins were pelleted (10,000 g, 10 min, 4° C.), and the resulting pellets were re-suspended in a buffer (90 μL) containing 9M urea, 10 mM DTT and 50 mM triethylammonium bicarbonate ( 1/20 dilution of 1.0 M stock solution, pH 8.5) by thorough pipetting up and down. The resulting mixture was heated at 65° C. for 20 min. Sample was cooled to room temp, iodoacetamide (10 μL, 500 mM solution in H2O) was added, and the samples were incubated at 37° C. for 30 min with shaking.
# (§4) At individual TMT experiment level, the following filters were applied to remove low-quality peptides: removal of non-unique peptides; removal of half-tryptic peptides; removal of peptides with more than one internal miscleaved site; removal of peptides with low (<10,000) sum of reporter ion intensities for control channels, and peptides with high variation between the replicate control channels (coefficient of variance >0.5). R values (compound-treated vs. DMSO-treated) for each peptide entry were calculated using the reporter ion intensities of DMSO and compound treated TMT channels for each treatment group with a maximum ratio cap of 20. […]
# [2] = biological target: T2, CBLB E3 ubiquitin-protein ligase CBL-B C686 (Q13191) (Homo sapiens, UniProt Q13191); test: Cysteine reactivity ABPP; type: binding
# T2 construct: endogenous in cells; host or cells: primary human T cells
# T2 sequence (Q13191 whole entry): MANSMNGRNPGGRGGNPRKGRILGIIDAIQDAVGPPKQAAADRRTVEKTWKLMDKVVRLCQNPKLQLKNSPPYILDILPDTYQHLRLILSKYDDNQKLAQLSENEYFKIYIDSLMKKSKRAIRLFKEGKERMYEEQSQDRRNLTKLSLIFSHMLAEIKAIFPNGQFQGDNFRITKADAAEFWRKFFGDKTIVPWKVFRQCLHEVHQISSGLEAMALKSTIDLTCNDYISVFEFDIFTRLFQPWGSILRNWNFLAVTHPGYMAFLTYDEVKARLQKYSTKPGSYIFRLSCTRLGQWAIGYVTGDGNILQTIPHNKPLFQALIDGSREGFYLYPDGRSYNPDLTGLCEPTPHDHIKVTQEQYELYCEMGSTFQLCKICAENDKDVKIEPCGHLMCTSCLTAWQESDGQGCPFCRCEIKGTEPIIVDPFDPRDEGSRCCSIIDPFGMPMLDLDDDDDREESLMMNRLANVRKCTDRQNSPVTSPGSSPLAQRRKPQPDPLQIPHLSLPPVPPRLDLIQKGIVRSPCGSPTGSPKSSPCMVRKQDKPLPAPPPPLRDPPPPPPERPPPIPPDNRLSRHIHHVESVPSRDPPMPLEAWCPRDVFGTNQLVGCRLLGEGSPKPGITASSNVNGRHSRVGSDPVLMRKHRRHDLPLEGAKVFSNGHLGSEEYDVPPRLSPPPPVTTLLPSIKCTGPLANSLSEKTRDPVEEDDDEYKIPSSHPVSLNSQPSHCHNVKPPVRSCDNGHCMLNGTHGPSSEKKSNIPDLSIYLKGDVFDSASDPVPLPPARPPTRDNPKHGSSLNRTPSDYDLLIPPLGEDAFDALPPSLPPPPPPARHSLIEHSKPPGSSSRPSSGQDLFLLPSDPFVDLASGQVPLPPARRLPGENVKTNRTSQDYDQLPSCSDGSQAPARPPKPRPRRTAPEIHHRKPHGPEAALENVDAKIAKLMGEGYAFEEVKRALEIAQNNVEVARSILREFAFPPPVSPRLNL
# Procedure: as §1, §2, §3, §4
# [3] = biological target: T3, JAK1 Tyrosine-protein kinase JAK1 C810, C817 (P23458) (Homo sapiens, UniProt P23458); test: Cysteine reactivity ABPP; type: binding
# T3 construct: endogenous in cells; host or cells: primary human T cells
# T3 sequence (P23458 whole entry): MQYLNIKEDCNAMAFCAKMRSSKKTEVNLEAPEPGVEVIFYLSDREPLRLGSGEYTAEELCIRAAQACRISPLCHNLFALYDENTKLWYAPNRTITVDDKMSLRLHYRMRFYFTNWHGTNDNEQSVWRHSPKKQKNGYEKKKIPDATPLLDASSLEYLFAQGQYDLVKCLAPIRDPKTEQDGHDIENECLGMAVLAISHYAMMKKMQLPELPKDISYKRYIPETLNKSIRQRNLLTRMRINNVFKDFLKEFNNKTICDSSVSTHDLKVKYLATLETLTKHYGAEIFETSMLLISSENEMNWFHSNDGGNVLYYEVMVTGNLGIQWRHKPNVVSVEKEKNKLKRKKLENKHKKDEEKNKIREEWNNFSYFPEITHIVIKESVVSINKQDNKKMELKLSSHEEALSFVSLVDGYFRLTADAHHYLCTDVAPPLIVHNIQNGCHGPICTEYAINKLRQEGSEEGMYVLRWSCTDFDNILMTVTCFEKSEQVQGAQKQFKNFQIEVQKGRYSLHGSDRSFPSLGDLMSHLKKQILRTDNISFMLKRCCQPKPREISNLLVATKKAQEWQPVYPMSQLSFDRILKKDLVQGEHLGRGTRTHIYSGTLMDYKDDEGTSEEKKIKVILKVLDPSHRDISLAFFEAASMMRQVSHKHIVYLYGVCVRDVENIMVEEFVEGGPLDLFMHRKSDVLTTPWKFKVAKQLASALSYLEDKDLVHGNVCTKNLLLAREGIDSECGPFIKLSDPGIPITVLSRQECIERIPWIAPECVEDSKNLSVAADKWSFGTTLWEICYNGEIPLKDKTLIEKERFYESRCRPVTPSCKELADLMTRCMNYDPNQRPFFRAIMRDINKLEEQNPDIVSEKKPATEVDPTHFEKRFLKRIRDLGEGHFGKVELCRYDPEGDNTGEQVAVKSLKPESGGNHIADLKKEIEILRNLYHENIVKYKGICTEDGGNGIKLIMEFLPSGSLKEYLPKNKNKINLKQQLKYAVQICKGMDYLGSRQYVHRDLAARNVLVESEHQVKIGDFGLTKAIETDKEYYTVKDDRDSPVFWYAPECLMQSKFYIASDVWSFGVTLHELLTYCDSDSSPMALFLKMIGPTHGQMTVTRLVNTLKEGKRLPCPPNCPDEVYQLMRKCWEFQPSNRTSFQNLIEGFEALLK
# Procedure: as §1, §2, §3, §4
# [4] = biological target: T4, PFKFB3 6-phosphofructo-2-kinase/fructose-2,6-bisphosphatase 3 C155 (Q16875) (Homo sapiens, UniProt Q16875); test: Cysteine reactivity ABPP; type: binding
# T4 construct: endogenous in cells; host or cells: primary human T cells
# T4 sequence (Q16875 whole entry, one chain of several): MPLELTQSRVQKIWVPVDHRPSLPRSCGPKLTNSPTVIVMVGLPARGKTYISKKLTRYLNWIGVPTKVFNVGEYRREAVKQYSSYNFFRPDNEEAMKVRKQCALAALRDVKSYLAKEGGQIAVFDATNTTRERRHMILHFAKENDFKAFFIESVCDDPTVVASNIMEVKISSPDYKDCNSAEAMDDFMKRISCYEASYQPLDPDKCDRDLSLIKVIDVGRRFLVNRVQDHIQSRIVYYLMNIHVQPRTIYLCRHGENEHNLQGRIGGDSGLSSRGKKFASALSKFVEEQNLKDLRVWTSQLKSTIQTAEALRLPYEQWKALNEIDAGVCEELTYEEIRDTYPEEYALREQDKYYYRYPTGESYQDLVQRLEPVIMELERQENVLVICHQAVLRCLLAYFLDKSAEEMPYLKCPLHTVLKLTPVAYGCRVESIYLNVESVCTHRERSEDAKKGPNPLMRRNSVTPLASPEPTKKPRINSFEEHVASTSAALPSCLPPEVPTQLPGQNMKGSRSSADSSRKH
# Procedure: as §1, §2, §3, §4
# [5] = biological target: T5, PTPN11 Tyrosine-protein phosphatase non-receptor type 11 C259 (Q06124) (Homo sapiens, UniProt Q06124); test: Cysteine reactivity ABPP; type: binding
# T5 construct: endogenous in cells; host or cells: primary human T cells
# T5 sequence (Q06124 1-593): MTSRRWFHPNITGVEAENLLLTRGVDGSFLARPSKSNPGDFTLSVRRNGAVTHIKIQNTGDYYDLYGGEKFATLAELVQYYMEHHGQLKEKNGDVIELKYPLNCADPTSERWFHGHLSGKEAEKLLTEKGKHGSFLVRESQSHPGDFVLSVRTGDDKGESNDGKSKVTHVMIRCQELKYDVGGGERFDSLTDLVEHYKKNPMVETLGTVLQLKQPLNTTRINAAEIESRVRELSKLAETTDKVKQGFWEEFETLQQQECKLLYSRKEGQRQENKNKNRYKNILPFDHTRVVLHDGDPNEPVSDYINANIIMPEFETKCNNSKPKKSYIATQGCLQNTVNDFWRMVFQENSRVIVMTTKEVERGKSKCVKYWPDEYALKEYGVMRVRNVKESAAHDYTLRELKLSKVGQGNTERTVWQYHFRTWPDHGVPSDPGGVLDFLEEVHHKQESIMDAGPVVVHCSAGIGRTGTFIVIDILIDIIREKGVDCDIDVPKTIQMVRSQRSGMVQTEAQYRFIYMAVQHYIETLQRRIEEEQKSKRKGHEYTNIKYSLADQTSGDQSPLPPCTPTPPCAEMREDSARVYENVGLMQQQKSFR
# Procedure: as §1, §2, §3, §4
# [6] = biological target: T6, STAT3 Signal transducer and activator of transcription 3 C259 (P40763) (Homo sapiens, UniProt P40763); test: Cysteine reactivity ABPP; type: binding
# T6 construct: endogenous in cells; host or cells: primary human T cells
# T6 sequence (P40763 whole entry, one chain of several): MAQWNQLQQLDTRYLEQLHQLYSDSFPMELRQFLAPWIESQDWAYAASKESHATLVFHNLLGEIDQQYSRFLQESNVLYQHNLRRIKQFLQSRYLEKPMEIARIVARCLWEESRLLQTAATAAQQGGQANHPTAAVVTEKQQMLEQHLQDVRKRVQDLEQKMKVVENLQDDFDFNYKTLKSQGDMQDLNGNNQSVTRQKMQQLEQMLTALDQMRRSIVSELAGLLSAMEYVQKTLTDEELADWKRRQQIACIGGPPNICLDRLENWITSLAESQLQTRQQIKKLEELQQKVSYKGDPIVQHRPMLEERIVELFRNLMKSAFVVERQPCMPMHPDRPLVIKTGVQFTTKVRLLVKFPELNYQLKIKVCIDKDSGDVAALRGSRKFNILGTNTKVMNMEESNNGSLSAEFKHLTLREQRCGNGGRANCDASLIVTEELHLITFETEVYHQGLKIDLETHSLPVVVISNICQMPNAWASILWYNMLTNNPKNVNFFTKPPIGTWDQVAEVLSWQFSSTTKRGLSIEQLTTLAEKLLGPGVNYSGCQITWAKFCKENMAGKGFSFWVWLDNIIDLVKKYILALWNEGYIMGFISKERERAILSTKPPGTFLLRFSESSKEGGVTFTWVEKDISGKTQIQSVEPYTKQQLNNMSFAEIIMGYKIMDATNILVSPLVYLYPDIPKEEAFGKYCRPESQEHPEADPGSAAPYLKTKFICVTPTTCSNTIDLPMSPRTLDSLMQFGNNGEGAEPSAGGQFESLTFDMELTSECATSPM
# Procedure: as §1, §2, §3, §4
# [7] = biological target: T7, STAT3 Signal transducer and activator of transcription 3 C712, C718 (P40763) (Homo sapiens, UniProt P40763); test: Cysteine reactivity ABPP; type: binding
# T7 construct: endogenous in cells; host or cells: primary human T cells
# T7 sequence (P40763 whole entry, one chain of several): as above
# Procedure: as §1, §2, §3, §4
# [8] = biological target: T8, TYK2 Non-receptor tyrosine-protein kinase TYK2 C838 (P29597) (Homo sapiens, UniProt P29597); test: Cysteine reactivity ABPP; type: binding
# T8 construct: endogenous in cells; host or cells: primary human T cells
# T8 sequence (P29597 whole entry): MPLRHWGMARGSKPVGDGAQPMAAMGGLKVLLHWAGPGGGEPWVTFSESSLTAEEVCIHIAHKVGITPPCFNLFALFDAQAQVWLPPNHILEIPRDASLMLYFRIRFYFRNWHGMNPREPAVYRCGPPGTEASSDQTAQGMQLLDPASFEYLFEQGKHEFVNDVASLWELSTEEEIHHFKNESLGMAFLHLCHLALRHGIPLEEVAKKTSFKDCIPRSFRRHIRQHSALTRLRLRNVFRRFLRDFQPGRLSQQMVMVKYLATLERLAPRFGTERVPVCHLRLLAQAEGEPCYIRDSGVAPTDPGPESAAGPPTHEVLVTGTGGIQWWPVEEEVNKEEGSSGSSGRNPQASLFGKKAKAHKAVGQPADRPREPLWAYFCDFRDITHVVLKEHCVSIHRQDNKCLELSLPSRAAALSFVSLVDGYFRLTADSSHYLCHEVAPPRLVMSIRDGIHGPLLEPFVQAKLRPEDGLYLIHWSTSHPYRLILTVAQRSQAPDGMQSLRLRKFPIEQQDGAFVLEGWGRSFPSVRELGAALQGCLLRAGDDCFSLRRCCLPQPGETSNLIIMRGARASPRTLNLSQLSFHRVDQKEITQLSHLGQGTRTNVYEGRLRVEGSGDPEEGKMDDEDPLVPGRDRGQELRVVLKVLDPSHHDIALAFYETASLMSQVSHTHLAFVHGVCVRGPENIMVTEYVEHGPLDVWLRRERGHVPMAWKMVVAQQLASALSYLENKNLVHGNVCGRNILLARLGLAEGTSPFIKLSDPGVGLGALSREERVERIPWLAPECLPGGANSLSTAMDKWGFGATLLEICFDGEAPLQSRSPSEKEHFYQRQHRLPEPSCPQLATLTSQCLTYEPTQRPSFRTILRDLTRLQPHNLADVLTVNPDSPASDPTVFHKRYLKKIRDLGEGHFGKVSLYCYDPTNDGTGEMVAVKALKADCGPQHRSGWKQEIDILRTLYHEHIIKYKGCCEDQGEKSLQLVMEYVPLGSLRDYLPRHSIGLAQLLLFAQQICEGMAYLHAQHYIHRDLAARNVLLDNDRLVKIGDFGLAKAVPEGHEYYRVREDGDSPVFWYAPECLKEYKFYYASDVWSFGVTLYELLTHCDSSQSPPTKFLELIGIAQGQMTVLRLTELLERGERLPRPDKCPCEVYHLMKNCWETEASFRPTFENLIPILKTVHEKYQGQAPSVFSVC
# Procedure: as §1, §2, §3, §4
# primary human T cells = test: Multidimensional screen for inhibition of T cell activation; type: cell-based
# Procedure: Non-tissue culture treated 96-well plates are pre-coated with αCD3 (5 μg/mL) and αCD28 antibodies (2 μg/mL) in PBS (100 μL/well) and left at 4° C. overnight. Freshly isolated T cells are re-suspended in RPMI media supplemented with 10% FBS, L-glutamine (2 mM), penicillin (100 U/mL), and streptomycin (100 μg/mL) at 2×10^6 cells/mL. Compound stocks (200×) in DMSO are diluted to 2× stocks in the working RPMI media in another 96-well plate. The pre-coated 96-well treatment plates are washed with PBS (2×200μL), T cells (100 μL/well, 2×10^5 cells/well) are then added to the wells, followed by the addition of 2× compound stocks in RPMI media (100 μL). […]
# The levels of secreted IL2, IFNγ and TNFα after incubating T cells in the presence of DMSO or electrophilic compounds under TCR-stimulating conditions are measured using DuoSet ELISA cytokine kits (R&D Systems) in clear microplates (R&D Systems) according to manufacturer's instructions and read using a CLARIOstar (BMG Labtech) plate reader (450 nm).
# A multidimensional screen can be preformed of a focused library of structurally elaborated electrophilic small molecules to identify compounds that suppress T cell activation at low-μM concentrations without causing cytotoxicity. […] The viability of T cells can be monitored by flow cytometry using near-IR live-dead stain.
# BIRC2 (C45) = biological target: T9, BIRC2 (C45) (Homo sapiens, UniProt Q13490); test: isoTOP-ABPP of elaborated compound data (DMF datasets); type: binding; settings: maximal ratio of 20 = ≥95% reduction in MS1 peak area
# T9 construct: endogenous in cells; host or cells: primary human T cells
# Procedure: as §1
# (§5) The heavy/light isoTOP-ABPP ratios (R values) for each unique peptide (DMSO/compound treated) were quantified with in-house CIMAGE software (Weerapana et al., 2010) using default parameters (3 MS1 acquisitions per peak and signal to noise threshold set to 2.5). Site-specific engagement of cysteine residues was assessed by blockade of IA-alkyne probe labeling. […] Ratios for unique peptide sequences were calculated for each experiment; overlapping peptides with the same modified cysteine (e.g., different charge states, elution times or tryptic termini) were grouped together and the median ratio was reported as the final ratio (R). […]
# CASP2 (C366, C370) = biological target: T10, CASP2 (C366, C370) (Homo sapiens, UniProt P42575); test: as above; type: binding; settings: maximal ratio of 20 = ≥95% reduction in MS1 peak area
# T10 construct: Soluble and particulate proteomic fractions were separated by ultracentrifugation; endogenous in cells; host or cells: primary human T cells
# T10 sequence (P42575 1-452): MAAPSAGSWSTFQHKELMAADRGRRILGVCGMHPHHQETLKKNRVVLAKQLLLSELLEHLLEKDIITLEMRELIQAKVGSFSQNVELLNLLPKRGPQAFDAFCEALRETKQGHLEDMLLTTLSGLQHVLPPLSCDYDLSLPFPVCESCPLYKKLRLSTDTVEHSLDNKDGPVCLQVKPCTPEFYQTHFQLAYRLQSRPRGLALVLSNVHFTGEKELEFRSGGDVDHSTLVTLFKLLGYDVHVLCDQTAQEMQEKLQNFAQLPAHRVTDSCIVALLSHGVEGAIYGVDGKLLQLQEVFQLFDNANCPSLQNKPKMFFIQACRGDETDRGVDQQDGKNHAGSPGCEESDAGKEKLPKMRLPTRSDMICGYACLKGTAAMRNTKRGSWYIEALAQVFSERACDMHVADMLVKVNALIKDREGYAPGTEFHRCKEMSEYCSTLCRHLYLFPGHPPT
# Procedure: as §1, §5
Compound,Cysteine reactivity proteomic data ([1]; 100 μM),Cysteine reactivity proteomic data ([1]; 500 μM),Cysteine reactivity proteomic data ([2]; 100 μM),Cysteine reactivity proteomic data ([2]; 500 μM),Cysteine reactivity proteomic data ([3]; 100 μM),Cysteine reactivity proteomic data ([3]; 500 μM),Cysteine reactivity proteomic data ([4]; 100 μM),Cysteine reactivity proteomic data ([4]; 500 μM),Cysteine reactivity proteomic data ([5]; 100 μM),Cysteine reactivity proteomic data ([5]; 500 μM),Cysteine reactivity proteomic data ([6]; 100 μM),Cysteine reactivity proteomic data ([6]; 500 μM),Cysteine reactivity proteomic data ([7]; 100 μM),Cysteine reactivity proteomic data ([7]; 500 μM),Cysteine reactivity proteomic data ([8]; 100 μM),Cysteine reactivity proteomic data ([8]; 500 μM),"suppress T cell activation (primary human T cells; anti-CD3/anti-CD28 activation, measured 24 h later by reductions in secreted IL-2, IFN-γ and CD69, CD25 expression) [%]","viability of T cells (primary human T cells; flow cytometry, near-IR live-dead stain) [%]",isoTOP-ABPP ratio R (DMSO/compound treated) (BIRC2 (C45)),"isoTOP-ABPP ratio R (DMSO/compound treated) (CASP2 (C366, C370))"
C=CC(=O)N(Cc1cccc(Cl)n1)c1ccc(C(=O)Nc2ccccc2)nc1 [Compound L4],−14.9577,58.3081,4.7619,84.7455,94.3358,99.489,81.7564,89.0944,50.0993,72.8049,58.1986,57.1888,42.1791,80.6157,96.4386,98.2637,,,,
CN(C)C=O [DMF],,,,,,,,,,,,,,,,,> 65,> 85,20,20
